Source: patent US20100298141A1, “SUBSTITUTED PYRIDINE N-OXIDE HERBICIDES” (E. I. DU PONT DE NEMOURS AND COMPANY, priority 2007, published 2010)

Legend:
[1] = tested on: barnyardgrass; test: Test A pre-/postemergence greenhouse test; assay type: in vivo, Echinochloa crus-galli; conditions: for Plant response rating, Barnyardgrass: 0 to 100 scale where 0 is no effect and 100 is complete control; for Barnyardgrass plant response rating: 0 to 100 scale
Outline: (§1)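 Visual injury ratings, made relative to untreated controls roughly ten days after treatment, cover both preemergence and postemergence application. Compounds in a surfactant-containing non-phytotoxic solvent were sprayed onto the soil surface after sowing and, simultaneously, onto young plants at the one- to two-leaf stage.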

[2] = tested on: crabgrass; test: Test A pre-/postemergence greenhouse test; assay type: in vivo, Digitaria sanguinalis; conditions: for Plant response rating, Crabgrass, Large: 0 to 100 scale where 0 is no effect and 100 is complete control; for Crabgrass, Large plant response rating: 0 to 100 scale
Outline: as §1

[3] = tested on: giant foxtail; test: Test A pre-/postemergence greenhouse test; assay type: in vivo, Setaria faberi; conditions: for Plant response rating, Foxtail, Giant: 0 to 100 scale where 0 is no effect and 100 is complete control; for Foxtail, Giant plant response rating: 0 to 100 scale
Outline: as §1

[4] = tested on: morningglory; test: Test A pre-/postemergence greenhouse test; assay type: in vivo, Ipomoea spp.; conditions: for Plant response rating, Morningglory: 0 to 100 scale where 0 is no effect and 100 is complete control; for Morningglory plant response rating: 0 to 100 scale
Outline: as §1

[5] = tested on: redroot pigweed; test: Test A pre-/postemergence greenhouse test; assay type: in vivo, Amaranthus retroflexus; conditions: for Plant response rating, Pigweed: 0 to 100 scale where 0 is no effect and 100 is complete control; for Pigweed plant response rating: 0 to 100 scale
Outline: as §1

[6] = tested on: velvetleaf; test: Test A pre-/postemergence greenhouse test; assay type: in vivo, Abutilon theophrasti; conditions: for Plant response rating, Velvetleaf: 0 to 100 scale where 0 is no effect and 100 is complete control; for Velvetleaf plant response rating: 0 to 100 scale
Outline: as §1

[7] = tested on: wheat; test: Test A pre-/postemergence greenhouse test; assay type: in vivo, Triticum aestivum; conditions: for Plant response rating, Wheat: 0 to 100 scale where 0 is no effect and 100 is complete control; for Wheat plant response rating: 0 to 100 scale
Outline: as §1

[8] = tested on: corn; test: Test A pre-/postemergence greenhouse test; assay type: in vivo, Zea mays; conditions: for Plant response rating, Corn: 0 to 100 scale where 0 is no effect and 100 is complete control; for Corn plant response rating: 0 to 100 scale
Outline: as §1

[9] = tested on: rice; test: Test C flooded paddy test; assay type: in vivo, Oryza sativa; conditions: Flood
Outline: (§2)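 Compound was added to standing water 3 cm above soil, flood maintained, and plants held in a greenhouse before visual scoring against controls at 13 to 15 days.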

[10] = tested on: umbrella sedge; test: Test C flooded paddy test; assay type: in vivo, Cyperus difformis; conditions: Flood
Outline: as §2

[11] = tested on: duck salad; test: Test C flooded paddy test; assay type: in vivo, Heteranthera limosa; conditions: Flood
Outline: as §2

[12] = tested on: barnyardgrass; test: Test C flooded paddy test; assay type: in vivo, Echinochloa crus-galli; conditions: Flood
Outline: as §2

[13] = Postemergence, 500 g ai/ha, 0 is no effect, 100 is complete control
[14] = Preemergence, 125 g ai/ha, 0 no effect, 100 complete control
[15] = 31 g ai/ha, scale 0 to 100 (0 no effect, 100 complete control)
[16] = 62 g ai/ha, scale 0 to 100, 0 no effect, 100 complete control, 13 to 15 days
[17] = 125 g ai/ha, scale 0 to 100, 0 no effect, 100 complete control, 13 to 15 days
[18] = 250 g ai/ha, scale 0 to 100, 0 no effect, 100 complete control, 13 to 15 days

CC(c1c(C(F)(F)F)nn(CC(F)(F)F)c1Cl)S(=O)(=O)c1ccc(Cl)c[n+]1[O-] (stereo not drawn) [Compound 55]
100: Plant response rating, Barnyardgrass ([1]; Preemergence, 500 g ai/ha) | Plant response rating, Pigweed ([5]; Preemergence, 500 g ai/ha)
65: Plant response rating, Sedge, Umbrella [10, 17]
60: Foxtail, Giant plant response rating [3, 14] | Plant response rating, Ducksalad [11, 17] | Plant response rating, Ducksalad [11, 18]
40: Plant response rating, Barnyardgrass ([1]; Postemergence, 125 g ai/ha) | Plant response rating, Ducksalad [11, 16]
50: Plant response rating, Crabgrass, Large ([2]; Postemergence, 125 g ai/ha) | Morningglory plant response rating [4, 13] | Plant response rating, Morningglory ([4]; Preemergence, 500 g ai/ha)
20: Plant response rating, Rice [9, 18]
70: Plant response rating, Foxtail, Giant ([3]; Postemergence, 125 g ai/ha)
90: Plant response rating, Crabgrass, Large ([2]; Preemergence, 500 g ai/ha) | Plant response rating, Foxtail, Giant ([3]; Preemergence, 500 g ai/ha) | Pigweed plant response rating [5, 14]
30: Barnyardgrass plant response rating [1, 14] | Pigweed plant response rating [5, 13] | Velvetleaf plant response rating [6, 13]
75: Plant response rating, Sedge, Umbrella [10, 18]
80: Barnyardgrass plant response rating [1, 13] | Crabgrass, Large plant response rating [2, 13] | Crabgrass, Large plant response rating [2, 14] | Foxtail, Giant plant response rating [3, 13]
0: Plant response rating, Morningglory ([4]; Postemergence, 125 g ai/ha) | Morningglory plant response rating [4, 14] | Plant response rating, Pigweed ([5]; Postemergence, 125 g ai/ha) | Plant response rating, Velvetleaf ([6]; Postemergence, 125 g ai/ha) | Velvetleaf plant response rating [6, 14] | Plant response rating, Velvetleaf ([6]; Preemergence, 500 g ai/ha) | Plant response rating, Wheat ([7]; Postemergence, 125 g ai/ha) | Wheat plant response rating [7, 13] | Wheat plant response rating [7, 14] | Plant response rating, Wheat ([7]; Preemergence, 500 g ai/ha) | Plant response rating, Corn ([8]; Postemergence, 125 g ai/ha) | Corn plant response rating [8, 13] | Corn plant response rating [8, 14] | Plant response rating, Corn ([8]; Preemergence, 500 g ai/ha) | Plant response rating, Rice [9, 15] | Plant response rating, Rice [9, 16] | Plant response rating, Rice [9, 17] | Plant response rating, Sedge, Umbrella [10, 15] | Plant response rating, Ducksalad [11, 15] | Plant response rating, Barnyardgrass [12, 15] | Plant response rating, Barnyardgrass [12, 16] | Plant response rating, Barnyardgrass [12, 17] | Plant response rating, Barnyardgrass [12, 18]

Cc1cc[n+]([O-])c(S(=O)(=O)C(Cl)c2c(C(F)(F)F)nn(CC(F)(F)F)c2Cl)c1 (stereo not drawn) [Compound 56]
30: Foxtail, Giant plant response rating [3, 14]
80: Plant response rating, Crabgrass, Large ([2]; Preemergence, 500 g ai/ha)
0: Plant response rating, Barnyardgrass ([1]; Postemergence, 125 g ai/ha) | Barnyardgrass plant response rating [1, 14] | Plant response rating, Crabgrass, Large ([2]; Postemergence, 125 g ai/ha) | Plant response rating, Foxtail, Giant ([3]; Postemergence, 125 g ai/ha) | Plant response rating, Morningglory ([4]; Postemergence, 125 g ai/ha) | Morningglory plant response rating [4, 14] | Plant response rating, Morningglory ([4]; Preemergence, 500 g ai/ha) | Plant response rating, Pigweed ([5]; Postemergence, 125 g ai/ha) | Plant response rating, Velvetleaf ([6]; Postemergence, 125 g ai/ha) | Velvetleaf plant response rating [6, 13] | Velvetleaf plant response rating [6, 14] | Plant response rating, Wheat ([7]; Postemergence, 125 g ai/ha) | Wheat plant response rating [7, 13] | Wheat plant response rating [7, 14] | Plant response rating, Wheat ([7]; Preemergence, 500 g ai/ha) | Plant response rating, Corn ([8]; Postemergence, 125 g ai/ha) | Corn plant response rating [8, 13] | Corn plant response rating [8, 14] | Plant response rating, Corn ([8]; Preemergence, 500 g ai/ha) | Plant response rating, Rice [9, 15] | Plant response rating, Rice [9, 16] | Plant response rating, Rice [9, 17] | Plant response rating, Rice [9, 18] | Plant response rating, Sedge, Umbrella [10, 15] | Plant response rating, Ducksalad [11, 15] | Plant response rating, Barnyardgrass [12, 15] | Plant response rating, Barnyardgrass [12, 16] | Plant response rating, Barnyardgrass [12, 17]
20: Crabgrass, Large plant response rating [2, 14] | Pigweed plant response rating [5, 13] | Plant response rating, Barnyardgrass [12, 18]
45: Plant response rating, Sedge, Umbrella [10, 17]
55: Plant response rating, Sedge, Umbrella [10, 18]
70: Plant response rating, Barnyardgrass ([1]; Preemergence, 500 g ai/ha)
85: Plant response rating, Ducksalad [11, 17]
40: Plant response rating, Velvetleaf ([6]; Preemergence, 500 g ai/ha) | Plant response rating, Ducksalad [11, 16]
100: Plant response rating, Pigweed ([5]; Preemergence, 500 g ai/ha) | Plant response rating, Ducksalad [11, 18]
90: Plant response rating, Foxtail, Giant ([3]; Preemergence, 500 g ai/ha)
10: Morningglory plant response rating [4, 13]
50: Barnyardgrass plant response rating [1, 13] | Crabgrass, Large plant response rating [2, 13] | Foxtail, Giant plant response rating [3, 13]
